Tested on: human PBMCs
Experiment: IL-6 secretion in human PBMCs, two batches of Compound A and SC12
Type: cell-based
Conditions: 5 months storage in DMSO at 4° C.
Method: PBMCs were purified from two donors and plated into 96 well plates at 2×10^5 cells/well in RPMI media including human 2% heat inactivated AB serum, glutamine, Pen-strep and R-mercapto-ethanol. […] The conditioned media was removed for ELISA analyses for IL-6, and the EC50 value determined for each compound and each batch.
All compounds were tested in four concentrations (10-1-0, 1-0.01 micromolar).
Concentrations of IL-6 were determined by ELISA from R&D Systems using the Microsoft Excel software. The results were analyzed in Graph Pad Prism in order to prepare dose-response curves, and for determination of EC50 values.

## CCCCCCCCCCCC(=O)OCC(COP(=O)(O)OCCNC(=O)c1ccc(Cn2c(=O)[nH]c3c(N)nc(OCCOC)nc32)cc1)OC(=O)CCCCCCCCCCC (stereo not shown) [SC12]
  activity after storage (in words): have not lost activity

— US9180183B2, “Phospholipid drug analogs” (Telormedix SA, priority 2010, dated 2015)
